Assay [1] addresses GDP-bound NRAS wild-type protein (Homo sapiens, UniProt P01111). The experiment in a line: Binding to NRAS by surface plasmon resonance (SPR), KD and KD ratio to KRAS. To be noted: ratio of KD for GDP-bound NRAS wild-type protein to KD for KRAS. The procedure, abridged: (§1)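 Affinity is measured by surface plasmon resonance at 30°C against captured, GDP-loaded RAS carrying a biotinylated Avi tag. Compounds are titrated by single-cycle kinetics, and KD comes from a 1:1 fit.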

Another assay has as its target HRAS wild-type protein (Homo sapiens, UniProt P01112). Kind of assay: Binding to HRAS by surface plasmon resonance (SPR), KD and KD ratio to KRAS. To be noted: ratio of KD for HRAS wild-type protein to KD for KRAS. In outline: as §1
Assay [2] concerns human lung cancer strain NCI-H441. The experiment in a line: NCI-H441 cell proliferation inhibitory activity (CellTiter-Glo, 4 days). Conditions: NCI-H441 cells, 4 days, read-out: NCl-H441 IC50. The assay is classed as cell-based. In outline:
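Readout: […] after the ATP-based reagent. Compound: serial dilutions in dimethyl sulfoxide.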

Assay [3] deals with GDP-bound KRAS wild-type protein (Homo sapiens, UniProt P01116). The experiment in a line: Binding to KRAS by surface plasmon resonance (SPR), dissociation constant KD. Conditions: 1:1 binding model. The procedure, abridged:
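Measured at 30°C: SPR with GDP-loaded, E. coli-expressed biotin-Avi RAS captured (~100–300 RU), ascending 75 s compound injections, HBS pH 7.4 with GDP, MgCl2, 4% DMSO. KD from 1:1 fit.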

Structures are written as SMILES.

Chain of HRAS wild-type protein (P01112 whole entry): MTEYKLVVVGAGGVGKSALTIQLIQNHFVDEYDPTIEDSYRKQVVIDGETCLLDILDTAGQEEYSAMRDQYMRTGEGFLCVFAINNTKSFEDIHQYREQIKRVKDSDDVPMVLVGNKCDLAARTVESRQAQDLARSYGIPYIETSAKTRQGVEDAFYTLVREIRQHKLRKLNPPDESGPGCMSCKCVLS
Chain of GDP-bound NRAS wild-type protein (P01111 whole entry): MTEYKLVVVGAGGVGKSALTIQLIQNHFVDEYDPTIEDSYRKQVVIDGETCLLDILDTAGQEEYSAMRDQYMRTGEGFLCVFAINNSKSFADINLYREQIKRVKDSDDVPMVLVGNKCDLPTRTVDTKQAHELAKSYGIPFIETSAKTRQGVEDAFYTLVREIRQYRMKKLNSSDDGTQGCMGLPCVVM
Chain of GDP-bound KRAS wild-type protein (P01116 1-188 isoform P01116-2): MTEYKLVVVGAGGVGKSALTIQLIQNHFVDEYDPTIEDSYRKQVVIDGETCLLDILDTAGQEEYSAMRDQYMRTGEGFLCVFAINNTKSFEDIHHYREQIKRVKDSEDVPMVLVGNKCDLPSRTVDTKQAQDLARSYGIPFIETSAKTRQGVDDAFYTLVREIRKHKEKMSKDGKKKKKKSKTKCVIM

In the case of `CCC(CC)[C@H]1C(=O)N(C)[C@H](C(=O)N(C)C)CC(=O)N(C)[C@@H](CC2CC2)C(=O)N[C@@H]([C@@H](C)CC)C(=O)N(C)CC(=O)N(C)[C@H]2C/C=C\CCN(C2=O)[C@@H](CC2CCC(F)(F)CC2)C(=O)N(C)CC(=O)N[C@@H](CCc2ccc(C(F)(F)F)c(OC)c2)C(=O)N2C[C@@H](C)C[C@H]2C(=O)NC2(CC(C)(C)C2)C(=O)N1C` [PP2494], the “NRAS /KRAS” value in assay [1] was “A (a compound having 10 or more and less than 20 is denoted as A)”. The “HRAS /KRAS” value on HRAS wild-type protein is “A (a compound having 10 or more and less than 20 is denoted as A)”. Also, the IC50 in assay [2] stood at 39.6 nM. The same compound showed a Kd in assay [3] of 1.8 nM.
`CCO[C@@H]1C[C@H]2C(=O)NC3(CC(C)(C)C3)C(=O)N(C)[C@@H](C(CC)CC)C(=O)N(C)[C@H](C(=O)N(C)C)CC(=O)N(C)[C@@H](CC3CC3)C(=O)N[C@@H]([C@@H](C)CC)C(=O)N(C)CC(=O)N(C)[C@H]3C/C=C\CCN(C3=O)[C@@H](CC3CCC(F)(F)CC3)C(=O)N(C)CC(=O)N[C@@H](CCc3ccc(C(F)(F)F)c(Cl)c3)C(=O)N2C1` [PP2495]: in assay [1], the “NRAS /KRAS” value was “A (a compound having 10 or more and less than 20 is denoted as A)”. Further, the “HRAS /KRAS” value at HRAS wild-type protein was “A (a compound having 10 or more and less than 20 is denoted as A)”. The IC50 in assay [2] was determined as 17.4 nM. In assay [3], this compound gave a Kd of 0.84 nM.
As to `CCC(CC)[C@H]1C(=O)N(C)[C@H](C(=O)N(C)C)CC(=O)N(C)[C@@H](C(C)C)C(=O)N[C@@H]([C@@H](C)CC)C(=O)N(C)CC(=O)N(C)[C@H]2C/C=C\CCN(C2=O)[C@@H](CC2CCC(F)(F)CC2)C(=O)N(C)CC(=O)N[C@@H](CCc2cc(F)c(C(F)(F)F)c(F)c2)C(=O)N2C[C@@H](C)C[C@H]2C(=O)NC2(CC(C)(C)C2)C(=O)N1C` [PP2496], the “NRAS /KRAS” value in assay [1] is “A (a compound having 10 or more and less than 20 is denoted as A)”. Further, at HRAS wild-type protein, the “HRAS /KRAS” value is “A (a compound having 10 or more and less than 20 is denoted as A)”. Also, the IC50 in assay [2] amounted to 97.3 nM. Besides, the Kd in assay [3] is 6.2 nM.
Consider `CCC[C@H]1C(=O)N[C@@H]([C@@H](C)CC)C(=O)N(C)CC(=O)N(C)[C@H]2C/C=C\CCN(C2=O)[C@@H](CC2CCC(F)(F)CC2)C(=O)N(C)CC(=O)N[C@@H](CCc2ccc(C(F)(F)F)c(OC)c2)C(=O)N2C[C@@H](C)C[C@H]2C(=O)NC2(CC(C)(C)C2)C(=O)N(C)[C@@H](C(CC)CC)C(=O)N(C)[C@H](C(=O)N(C)C)CC(=O)N1C` [PP2497], for which the “NRAS /KRAS” value in assay [1] was “A (a compound having 10 or more and less than 20 is denoted as A)”. Further, at HRAS wild-type protein, the “HRAS /KRAS” value was “A (a compound having 10 or more and less than 20 is denoted as A)”. Besides, in assay [2], the IC50 was found to be 84.8 nM. Besides, the Kd in assay [3] is 1.5 nM.
With `CCC[C@H]1C(=O)N[C@@H]([C@@H](C)CC)C(=O)N(C)CC(=O)N(C)[C@H]2C/C=C\CCN(C2=O)[C@@H](CC2CCC(F)(F)CC2)C(=O)N(C)CC(=O)N[C@@H](CCc2ccc(C(F)(F)F)c(Cl)c2)C(=O)N2C[C@H](OCC)C[C@H]2C(=O)NC2(CC(C)(C)C2)C(=O)N(C)[C@@H](C(CC)CC)C(=O)N(C)[C@H](C(=O)N(C)C)CC(=O)N1C` [PP2498], the “NRAS /KRAS” value in assay [1] was “A (a compound having 10 or more and less than 20 is denoted as A)”. Moreover, at HRAS wild-type protein, the “HRAS /KRAS” value is “A (a compound having 10 or more and less than 20 is denoted as A)”. The IC50 in assay [2] was found to be 21.9 nM. Also, the Kd in assay [3] came out at 0.67 nM.
On to `CCC(CC)[C@H]1C(=O)N(C)[C@H](C(=O)N(C)C)CC(=O)N(C)[C@@H](CC2CC2)C(=O)N[C@@H]([C@@H](C)CC)C(=O)N(C)CC(=O)N(C)[C@H]2C/C=C\CCN(C2=O)[C@@H](CC2CCC(F)(F)CC2)C(=O)N(C)CC(=O)N[C@@H](CCc2cc(F)c(C(F)(F)F)c(F)c2)C(=O)N2C[C@@H](C)C[C@H]2C(=O)NC2(CC(C)(C)C2)C(=O)N1C` [PP2500], for which the “NRAS /KRAS” value in assay [1] was “A (a compound having 10 or more and less than 20 is denoted as A)”. Moreover, the “HRAS /KRAS” value at HRAS wild-type protein is “A (a compound having 10 or more and less than 20 is denoted as A)”. Moreover, the IC50 in assay [2] came out at 125 nM. Further, in assay [3], the Kd was found to be 1.7 nM.
Regarding `CCCOC[C@H]1C(=O)N[C@@H]([C@@H](C)CC)C(=O)N(C)CC(=O)N(C)[C@H]2C/C=C\CCN(C2=O)[C@@H](CC2CCCCC2)C(=O)N(C)CC(=O)N[C@@H](CCc2cc(F)c(C(F)(F)F)c(F)c2)C(=O)N2C[C@H](OCC)C[C@H]2C(=O)NC2(CC(C)(C)C2)C(=O)N(C)[C@@H](C(CC)CC)C(=O)N(C)[C@H](C(=O)N(C)C)CC(=O)N1C` [PP2501], in assay [1], the “NRAS /KRAS” value is reported as “AA (a compound having 20 or more is denoted as AA)”. The “HRAS /KRAS” value on HRAS wild-type protein was “A (a compound having 10 or more and less than 20 is denoted as A)”. Also, in assay [2], the IC50 worked out at 180 nM. For the same compound, in assay [3], the dissociation constant (Kd) is 1.8 nM.
In the case of `CC[C@H](C)[C@@H]1NC(=O)[C@H](COC)N(C)C(=O)C[C@@H](C(=O)N(C)C)N(C)C(=O)[C@H](C2CCCC2)N(C)C(=O)C2(CC(C)(C)C2)NC(=O)[C@@H]2C[C@H](C)CN2C(=O)[C@H](CCc2ccc(C(F)(F)F)c(Cl)c2)NC(=O)CN(C)C(=O)[C@H](Cc2ccc(C)cc2)N2CC/C=C\C[C@@H](C2=O)N(C)C(=O)CN(C)C1=O` [PP2502], the “NRAS /KRAS” value in assay [1] is “A (a compound having 10 or more and less than 20 is denoted as A)”. For the same compound, the “HRAS /KRAS” value at HRAS wild-type protein was “A (a compound having 10 or more and less than 20 is denoted as A)”. Further, in assay [2], the IC50 was 7.9 nM. The Kd in assay [3] was 0.065 nM.
For the compound `CCOC[C@H]1C(=O)N[C@@H]([C@@H](C)CC)C(=O)N(C)CC(=O)N(C)[C@H]2C/C=C\CCN(C2=O)[C@@H](Cc2ccc(C)cc2)C(=O)N(C)CC(=O)N[C@@H](CCc2ccc(C(F)(F)F)c(OC)c2)C(=O)N2C[C@@H](C)C[C@H]2C(=O)NC2(CC(C)(C)C2)C(=O)N(C)[C@@H](C2CCCC2)C(=O)N(C)[C@H](C(=O)N(C)C)CC(=O)N1C` [PP2505], in assay [1], the “NRAS /KRAS” value was “A (a compound having 10 or more and less than 20 is denoted as A)”. Further, the “HRAS /KRAS” value on HRAS wild-type protein is “B (a compound having 3 or more and less than 10 is denoted as B)”. Moreover, the IC50 in assay [2] worked out at 17.2 nM. This compound came in with a Kd in assay [3] of 0.13 nM.
In the case of `CC[C@H](C)[C@@H]1NC(=O)[C@H](COC)N(C)C(=O)C[C@@H](C(=O)N(C)CC)N(C)C(=O)[C@H](C2CCCC2)N(C)C(=O)C2(CC(C)(C)C2)NC(=O)[C@@H]2C[C@H](C)CN2C(=O)[C@H](CCc2ccc(C(F)(F)F)c(Cl)c2)NC(=O)CN(C)C(=O)[C@H](Cc2ccc(C)cc2)N2CC/C=C\C[C@@H](C2=O)N(C)C(=O)CN(C)C1=O` [PP2506], the “NRAS /KRAS” value in assay [1] was “A (a compound having 10 or more and less than 20 is denoted as A)”. At HRAS wild-type protein, the “HRAS /KRAS” value is “A (a compound having 10 or more and less than 20 is denoted as A)”. For the same compound, in assay [2], the IC50 was 10.6 nM. The compound further yielded a Kd in assay [3] of 0.13 nM.
As to `CCO[C@@H]1C[C@H]2C(=O)NC3(CC(C)(C)C3)C(=O)N(C)[C@@H](C3CCCC3)C(=O)N(C)[C@H](C(=O)N(C)CC)CC(=O)N(C)[C@@H](COC)C(=O)N[C@@H]([C@@H](C)CC)C(=O)N(C)CC(=O)N(C)[C@H]3C/C=C\CCN(C3=O)[C@@H](Cc3ccc(C)cc3)C(=O)N(C)CC(=O)N[C@@H](CCc3ccc(C(F)(F)F)c(Cl)c3)C(=O)N2C1` [PP2507], the “NRAS /KRAS” value in assay [1] was “AA (a compound having 20 or more is denoted as AA)”. Also, at HRAS wild-type protein, the “HRAS /KRAS” value is “A (a compound having 10 or more and less than 20 is denoted as A)”. Also, the IC50 in assay [2] is 8.9 nM. In assay [3], the Kd amounted to 0.061 nM.
With `CCC[C@H]1C(=O)N[C@@H](CC(C)C)C(=O)N(C2CC2)CC(=O)N(C)[C@H]2C/C=C\CCN(C2=O)[C@@H](Cc2ccc(C)cc2)C(=O)N(C)CC(=O)N[C@@H](CCc2cc(F)c(C(F)(F)F)c(F)c2)C(=O)N2C[C@H](OCC)C[C@H]2C(=O)NC2(CC(C)(C)C2)C(=O)N(C)[C@@H](C2CCCC2)C(=O)N(C)[C@H](C(=O)N(C)C)CC(=O)N1C` [PP2508], the “NRAS /KRAS” value in assay [1] was “A (a compound having 10 or more and less than 20 is denoted as A)”. For the same compound, the “HRAS /KRAS” value at HRAS wild-type protein is “B (a compound having 3 or more and less than 10 is denoted as B)”. Further, the IC50 in assay [2] was determined as 124 nM. The same compound gave a Kd in assay [3] of 3.4 nM.
Consider `CCC(CC)[C@H]1C(=O)N(C)[C@H](C(=O)N(C)C)CC(=O)N(C)[C@@H](COC)C(=O)N[C@@H]([C@@H](C)CC)C(=O)N(C2CC2)CC(=O)N(C)[C@H]2C/C=C\CCN(C2=O)[C@@H](Cc2ccc(C)cc2)C(=O)N(C)CC(=O)N[C@@H](CCc2ccc(Cl)c(Cl)c2)C(=O)N2C[C@H](OC(C)C)C[C@H]2C(=O)NC2(CC(C)(C)C2)C(=O)N1C` [PP2509], for which, in assay [1], the “NRAS /KRAS” value was “AA (a compound having 20 or more is denoted as AA)”. Also, the “HRAS /KRAS” value at HRAS wild-type protein is “A (a compound having 10 or more and less than 20 is denoted as A)”. For the same compound, in assay [2], the IC50 worked out at 91.3 nM. In assay [3], the Kd amounted to 2.6 nM.
For the compound `CCC[C@H]1C(=O)N[C@@H](CC(C)C)C(=O)N(C2CC2)CC(=O)N(C)[C@H]2C/C=C\CCN(C2=O)[C@@H](Cc2ccc(C)cc2)C(=O)N(C)CC(=O)N[C@@H](CCc2ccc(C(F)(F)F)c(OC)c2)C(=O)N2C[C@H](OCC)C[C@H]2C(=O)NC2(CC(C)(C)C2)C(=O)N(C)[C@@H](C2CCCC2)C(=O)N(C)[C@H](C(=O)N(C)C)CC(=O)N1C` [PP2510], the “NRAS /KRAS” value in assay [1] was “A (a compound having 10 or more and less than 20 is denoted as A)”. In addition, the “HRAS /KRAS” value on HRAS wild-type protein was “B (a compound having 3 or more and less than 10 is denoted as B)”. In addition, the IC50 in assay [2] worked out at 180 nM. In assay [3], this compound registered a Kd of 3.9 nM.
